Where “and” joins values, the source holds several entries; their conditions need not be identical. Equal entries are not always repeated.
Legend:
[1] = molecular target: T1, KATP channel in A10 rat aortic smooth muscle cells (Rattus norvegicus, UniProt Q63563); test: A10 membrane potential assay (DiBAC4(3) fluorescence), KATP channel opening; type: cell-based; conditions: for block of the hyperpolarizing effect by glyburide: 10 μM glyburide; for block of the hyperpolarizing effect by glyburide / EC50: A10 cells; for EC50: hyperpolarization of membrane potential; for potency relative to N-cyano-N'-(1,1-dimethylpropyl)-N''-3-pyridinylguanidine: A10 membrane potential assay
T1 construct: resting membrane potential of A10 rat aortic smooth muscle cells; host or cells: A10 rat aortic smooth muscle cells
Source text: (§1) Compounds that modulate KATP channel activity were examined by quantitating the effect of these compounds on the resting membrane potential of A10 rat aortic smooth muscle cells (American Type Culture Collection, number CRL-1476) using a fluorescent, potentialsensitive dye and an instrument to measure changes in cellular fluorescence. The dye of choice is bis(1,3-dibutylbarbituric acid)trimethine oxonol) DiBAC4 (3). Other voltage sensitive dyes could also be used. To optically measure changes in membrane potential, cells were subcultured onto coverglass chambers and grown to confluence. Immediately prior to analysis, cells were washed several times with Earle's balanced salt solution that was buffered to pH 7.4 with 20 mM Hepes (EBSS-H) and then placed in the buffer containing 5 μM DiBAC4 (3). Fluorescent imaging of membrane potential was carried out after the cells were equilibrated with 5 μM DiBAC4 (3) for at least 15 min at 37° C. and then placed in a 35° C. temperature-regulated mini-incubator that was mounted on the stage of laser based imaging cytometer (ACAS 570, Meridian Instruments). The ACAS 570 was configured to excite the cells at 488 nm using an argon ion laser. The fluorescent emission was monitored at 525 nm. To determine the effect of azidophenylcyanoguanidines on membrane potential, the ACAS 570 was configured to collect data once every 60 seconds for at least 25 minutes using the Kinetic program within the ACAS software. In all cases, 7 min. of baseline data were collected before the addition of the compound of interest. Changes in membrane potential were computed using a logistical model developed at Upjohn Laboratories. Control experiments established that solvents such as dimethylsulfoxide and ethanol had no effect at concentrations up to 0.8%.
In FIG. 1 the Y axis represents the change in membrane potential elicited by N-cyano-N'-(1,1-dimethylpropyl)-N''-3-pyridinylguanidine. A positive change represents a hyperpolarization of the membrane potential caused by an opening of a KATP channel. The X axis represents increasing concentrations of N-cyano-N'-(1,1-dimethylpropyl)-N''-3-pyridinylguanidine. […] The EC50 for N-cyano-N'-(1,1-dimethylpropyl)-N''-3-pyridinylguanidine in the A10 membrane potential assay is 30 nM. […] In FIG. 2 the Y axis represents change in membrane potential elicited by Example 1. A positive change represents a hyperpolarization of the membrane potential caused by an opening of a KATP channel. The X axis represents increasing concentrations of Example 1. Example 1 is structurally related to N-cyano-N'-(1,1-dimethylpropyl)-N''-3-pyridinylguanidine and has an EC50 of approximately 30 nM in the A10 assay. […] In FIG. 3 the Y axis represents the change in membrane potential elicited by Example 2. A positive change represents a hyperpolarization of the membrane potential caused by an opening of a KATP channel. The X axis represents increasing concentrations of Example 2. Example 2 is structurally related to N-cyano-N'-(1,1-dimethylpropyl)-N''-3-pyridinylguanidine and has an EC50 of approximately 30 nM in the A10 assay.
In FIG. 4A and 4B the Y axis represents a change in membrane potential. In these experiments, a change in the negative direction represents a hyperpolarization of the membrane potential caused by an opening of a KATP channel. In FIG. 4A and 4B the X axis represents time in minutes. Additional experiments indicate that 0.3 and 1.0 μM Example 3 also have no effect on the membrane potential of A10 cells (data not shown). […] Thus, within the azidophenylcyanoguanidine chemical series there are compounds that can be used to identify the cellular components required to open and close KATP close channels.

[2] = molecular target: T1, KATP channel in A10 rat aortic smooth muscle cells; test: Reversal/block of N-cyano-N'-(1,1-dimethylpropyl)-N''-3-pyridinylguanidine-dependent KATP channel opening in A10 cells (membrane potential); type: cell-based
Source text: as §1
In FIG. 4A and 4B the Y axis represents a change in membrane potential. In these experiments, a change in the negative direction represents a hyperpolarization of the membrane potential caused by an opening of a KATP channel. In FIG. 4A and 4B the X axis represents time in minutes. […]

37 kilodalton protein = test: Competition of photolabeling of the 37 kilodalton protein by nonradiolabeled compound; type: binding, rat; conditions: nonradiolabeled Example 3, 1 nM to 30 uM
Method: (§2) To biochemically identify the proteins that specifically bind the azidophenylcyanguanidines, Example 1a, Example 2a and Example 3a were prepared. A10 cells were grown to confluence in standard culture plates and then washed extensively with EBSS-H. After the final wash, the cells were placed in EBSS-H containing one of the radiolabeled forms of the azidophenylcyanguanidine to be tested. The A10 cells were equilibrated with the radiolabeled compound for 15 minutes at 37° C. The A10 cells were placed on ice and exposed for 1 minute to 600 μwatts/cm^2 of 254 nm UV light. After photolysis, the A10 cells were washed extensively with phosphate buffered saline. Membranes from the A10 cells were solubilized in cocktail of 0.2% Triton X100 detergent and protease inhibitors. The membranes were precipitated with 4 volumes of ice cold acetone for 30 minutes. The precipitate membrane proteins were collected by centrifugation at 20,000 rpm for 30 rain at 4° C. in a Beckman SW-28 rotor. After centrifugation the supernate was discarded and the pellet was dissolved 2% sodium dodecyl sulfate (SDS) as described by O'Farrell (J. Biol. Chem. 250:4007-4021, 1975). The radiolabeled proteins were resolved on an SDS polyacrylamide gel and identified by autoradiography after the gel was stained and dried.
(§3) There was also a 27 kilodalton protein that was radiolabeled by Example 3a and UV light.

27 kilodalton protein = test: Competition of photolabeling of the 27 kilodalton protein by nonradiolabeled compound; type: binding, rat; conditions: nonradiolabeled Example 3, 1 nM to 30 uM
Method: as §2, §3

47 kilodalton protein = test: Competition of photolabeling of the 47 kilodalton protein by nonradiolabeled compound; type: binding, rat
Method: as §2, with “dried. […]” for “dried.”

[3] = tested on: calcium-activated potassium channel; test: Responsiveness of photoinactivated A10 cells to agents that open the calcium-activated potassium channel; type: cell-based, rat; conditions: maximum concentration and UV light
56 kilodalton protein = test: Competition of photolabeling of the 56 kilodalton protein by nonradiolabeled compound; type: binding, rat; conditions: nonradiolabeled Example 2, 1 nM to 30 uM
Method: as §2, with “dried. […]” for “dried.”

[4] = tested on: KATP channel in A10 cells; test: Photoinactivation of KATP channels in A10 cells (UV pretreatment, then opener challenge); type: cell-based, rat; conditions: for photoinactivation of the A10 KATP channel: compound and UV light; for responsiveness to N-cyano-N'-(1,1-dimethylpropyl)-N''-3-pyridinylguanidine challenge after pretreatment and UV light: UV 254 nm, 1 min, challenge 1 μM, FIG. 5
Source text: as §1
Photoinactivation of KATP channels in A10 cells was carried out on cells grown on coverglass chambers. A10 cells were grown to confluence and washed 3 times with EBSS-H. The A10 cells were then equilibrated for 15 min at 37° C. with 100 nM to 30 μM of the azidophenyl-cyanoguanidines. The A10 cells were exposed to 600 μwatts/cm^2 of 254 nm light for 1 min to photoactivate these azidophenyl-cyanoguanidines. After photolysis, the A10 cells were extensively washed with EBSS-H and finally placed in EBSS-H containing 5 μM DiBAC4 (3). The pretreated cells were then challenged with 1 μM N-cyano-N'-(1,1-dimethylpropyl)-N.increment.-3-pyridinylguanidine and changes in membrane potential were measured as described in Section I, above, ASSAY OF KATP CHANNEL MODULATORS. If the KATP channels in A10 cells were covalently photoinactivated by the azidophenyl-cyanoguanidines, then the cells would be unresponsive to the subsequent challenge of KATP openers such as N-cyano-N'-(1,1-dimethylpropyl)-N''-3-pyridinylguanidine. […]

[5] = tested on: cyanoguanidine binding proteins; test: Photolabeling of cyanoguanidine binding proteins in A10 cells (SDS gel, autoradiography); set-up: species or system rat; conditions: for apparent molecular weight of the most prominent radiolabeled protein / number of radiolabeled proteins / molecular weight of radiolabeled protein: A10 membrane extracts, UV light
Method: as §2

T1 sequence (Q63563 1-1545 isoform Q63563-2): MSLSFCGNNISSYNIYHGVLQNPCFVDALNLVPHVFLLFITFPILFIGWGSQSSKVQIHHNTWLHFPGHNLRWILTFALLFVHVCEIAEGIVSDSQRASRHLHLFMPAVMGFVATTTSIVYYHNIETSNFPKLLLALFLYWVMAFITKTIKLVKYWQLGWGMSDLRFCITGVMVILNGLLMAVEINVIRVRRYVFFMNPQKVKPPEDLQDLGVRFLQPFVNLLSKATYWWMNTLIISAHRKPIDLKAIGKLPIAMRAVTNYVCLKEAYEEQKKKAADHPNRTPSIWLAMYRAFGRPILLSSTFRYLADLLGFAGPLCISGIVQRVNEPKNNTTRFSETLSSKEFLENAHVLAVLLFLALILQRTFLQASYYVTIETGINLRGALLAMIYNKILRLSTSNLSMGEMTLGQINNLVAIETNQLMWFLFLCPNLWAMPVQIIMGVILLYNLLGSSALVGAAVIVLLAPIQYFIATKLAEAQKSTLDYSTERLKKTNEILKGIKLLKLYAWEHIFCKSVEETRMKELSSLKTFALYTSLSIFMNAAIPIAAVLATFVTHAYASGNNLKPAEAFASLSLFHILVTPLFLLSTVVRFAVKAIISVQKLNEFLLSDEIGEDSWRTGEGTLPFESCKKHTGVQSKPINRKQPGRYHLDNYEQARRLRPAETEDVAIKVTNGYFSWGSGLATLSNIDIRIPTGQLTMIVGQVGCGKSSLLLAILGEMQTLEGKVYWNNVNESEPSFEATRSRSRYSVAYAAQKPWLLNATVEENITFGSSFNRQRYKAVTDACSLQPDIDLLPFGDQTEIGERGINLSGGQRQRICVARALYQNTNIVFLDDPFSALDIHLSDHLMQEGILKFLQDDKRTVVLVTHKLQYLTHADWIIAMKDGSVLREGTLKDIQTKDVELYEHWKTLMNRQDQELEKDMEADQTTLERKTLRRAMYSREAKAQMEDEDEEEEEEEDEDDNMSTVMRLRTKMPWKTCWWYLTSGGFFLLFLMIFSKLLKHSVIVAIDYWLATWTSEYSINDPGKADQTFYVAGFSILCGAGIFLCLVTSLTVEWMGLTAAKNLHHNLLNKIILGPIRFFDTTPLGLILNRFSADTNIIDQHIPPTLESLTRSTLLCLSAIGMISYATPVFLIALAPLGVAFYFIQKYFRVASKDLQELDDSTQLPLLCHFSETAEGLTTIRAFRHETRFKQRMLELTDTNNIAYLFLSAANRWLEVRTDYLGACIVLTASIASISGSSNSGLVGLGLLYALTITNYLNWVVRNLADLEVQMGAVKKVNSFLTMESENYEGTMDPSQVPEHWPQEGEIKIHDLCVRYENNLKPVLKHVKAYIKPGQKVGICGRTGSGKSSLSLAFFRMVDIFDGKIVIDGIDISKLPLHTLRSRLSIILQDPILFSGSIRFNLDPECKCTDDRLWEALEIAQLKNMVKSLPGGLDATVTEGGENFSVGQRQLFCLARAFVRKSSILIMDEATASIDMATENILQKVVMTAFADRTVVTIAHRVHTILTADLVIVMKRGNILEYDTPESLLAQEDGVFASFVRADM
T1 sequence (Q63664 whole entry partner): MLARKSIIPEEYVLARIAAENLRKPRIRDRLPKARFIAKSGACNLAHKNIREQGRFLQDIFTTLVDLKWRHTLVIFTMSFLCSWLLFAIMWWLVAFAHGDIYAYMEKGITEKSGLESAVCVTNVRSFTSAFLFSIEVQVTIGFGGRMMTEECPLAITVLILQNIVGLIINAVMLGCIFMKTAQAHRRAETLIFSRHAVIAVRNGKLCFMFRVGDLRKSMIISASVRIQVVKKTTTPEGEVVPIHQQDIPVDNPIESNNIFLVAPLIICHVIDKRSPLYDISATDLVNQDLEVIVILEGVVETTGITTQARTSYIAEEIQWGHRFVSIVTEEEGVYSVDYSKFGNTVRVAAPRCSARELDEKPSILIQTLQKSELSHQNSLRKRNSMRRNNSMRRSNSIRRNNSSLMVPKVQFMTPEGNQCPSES

N#CNC(=NC1(c2cccc(F)c2)CCC1)Nc1cc(I)cc(N=[N+]=[N-])c1 [Example 3, N-(3-azido-5-iodophenyl)-N'-cyano-N"-(1-(3-fluorophenyl)cyclobutyl)guanidine]
effect on the membrane potential of A10 cells ([1]; 0.3 μM, data not shown): no effect
effect on the membrane potential of A10 cells ([1]; 1.0 μM, data not shown): no effect
effect on the membrane potential of A10 cells ([1]; 10 μM, FIG. 4A): no effect
reversal of the effect of N-cyano-N'-(1,1-dimethylpropyl)-N''-3-pyridinylguanidine ([2]; 10 μM, in continuing presence of 1 μM opener, FIG. 4B): reverses the effect
block of opener-dependent opening of KATP channels ([2]; additional experiments, concentration dependence): in a concentration dependent manner
mode of action on the KATP channel in A10 cells ([2]; conclusion from the data): blocker of the KATP channel
inhibition of radiolabeling of the 37 kilodalton protein by Example 3a (37 kilodalton protein): specifically inhibited
inhibition of radiolabeling of the 27 kilodalton protein by Example 3a (27 kilodalton protein): specifically inhibited

CCC(C)(C)N=C(NC#N)Nc1cc(I)cc(N=[N+]=[N-])c1 [Example 2, N-(3-azido-5-iodophenyl)-N'-cyano-N''-(1,1-dimethylpropyl)guanidine]
inhibition of radiolabeling of the 47 kilodalton protein by Example 2a (47 kilodalton protein; nonradiolabeled Example 2, 1 nM to 30 uM): specifically inhibited
block of the hyperpolarizing effect by glyburide ([1]; data not shown): blocked
EC50 [1]: ~30 nM
potency relative to N-cyano-N'-(1,1-dimethylpropyl)-N''-3-pyridinylguanidine [1]: as potent as
responsiveness to agents that open the calcium-activated potassium channel after pretreatment [3]: remained responsive
inhibition of radiolabeling of the 56 kilodalton protein by Example 2a (56 kilodalton protein): specifically inhibited
photoinactivation of the A10 KATP channel [4]: specifically photoinactivated the A10 KATP channel

[3H]C([3H])([3H])C([3H])([3H])C(C)(C)NC(=NC#N)Nc1cc(Cl)cc(N=[N+]=[N-])c1 [Example 1a, N-(3-azido-5-chlorophenyl)-N'-cyano-N''-(1,1-dimethyl-2,2,3,3,3-T5-propyl)guanidine]
apparent molecular weight of the most prominent radiolabeled protein [5]: 47 kilodaltons
number of radiolabeled proteins [5]: several radiolabeled proteins
labeling in the absence of UV light ([5]; no UV light, control experiments): no proteins were labeled

CCC(C)(C)NC(=NC#N)Nc1cc([125I])cc(N=[N+]=[N-])c1 [Example 2a, N-(3-azido-5-iodo-^125 I-phenyl)-N'-cyano-N''-(1,1-dimethylpropyl) guanidine]
molecular weight of radiolabeled protein [5]: 47 kilodalton and 56 kilodalton

CCC(C)(C)NC(=Nc1cccnc1)NC#N [N-cyano-N'-(1,1-dimethylpropyl)-N''-3-pyridinylguanidine, reference compound]
opening of the A10 KATP channel with hyperpolarization ([1]; 1 μM, FIG. 4B): opens the A10 KATP channel
block of the hyperpolarizing effect by glyburide ([1]; data not shown): blocked
EC50 [1]: 30 nM
responsiveness to N-cyano-N'-(1,1-dimethylpropyl)-N''-3-pyridinylguanidine challenge after pretreatment and UV light [4]: remain nearly completely responsive

CCC(C)(C)N=C(NC#N)Nc1cc(Cl)cc(N=[N+]=[N-])c1 [Example 1, N-(3-azido-5-chlorophenyl)-N'-cyano-N"-(1,1-dimethylpropyl)guanidine]
inhibition of radiolabeling of the 47 kilodalton protein by Example 1a (47 kilodalton protein; nonradiolabeled Example 1, 30 nM to 30 uM): specifically inhibited
block of the hyperpolarizing effect by glyburide ([1]; data not shown): blocked
EC50 [1]: ~30 nM
potency relative to N-cyano-N'-(1,1-dimethylpropyl)-N''-3-pyridinylguanidine [1]: as potent as
responsiveness to agents that open the calcium-activated potassium channel after pretreatment [3]: remained responsive
responsiveness to N-cyano-N'-(1,1-dimethylpropyl)-N''-3-pyridinylguanidine challenge after pretreatment and UV light [4]: concentration dependent loss
photoinactivation of the A10 KATP channel [4]: specifically photoinactivated the A10 KATP channel

N#CN=C(Nc1cc([125I])cc(N=[N+]=[N-])c1)NC1(c2cccc(F)c2)CCC1 [Example 3a, N-(3-azido-5-iodo-125I-phenyl)-N'-cyano-N''-[1-(3-fluorophenyl)cyclobutyl]guanidine]
apparent molecular weight of the most prominent radiolabeled protein [5]: 37 kilodaltons
molecular weight of radiolabeled protein [5]: 27 kilodalton
number of radiolabeled proteins [5]: several radiolabeled proteins
